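Where inhibition never reached the appropriate level, the endpoint shown equals the highest concentration tested. Otherwise, values were interpolated linearly from a five-concentration, 48-hour dose response in 96-well plates. Here, GI50 denotes the concentration required for 50% inhibition of growth. At the TGI there is no net growth.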
Columns and labels:
Test in all cases: NCI tumour cell line growth inhibition, 48 h
[1] = system: 786-0 renal
[2] = system: A498 renal
[3] = system: A549 NSCLC
[4] = system: ACHN renal
[5] = system: CAKI-1 renal
[6] = system: COLO 205 colon
[7] = system: DLD-1 colon
[8] = system: DMS 114 small cell lung
[9] = system: DMS 273 small cell lung
[10] = system: EKVX NSCLC
[11] = system: HCC-2998 colon
[12] = system: HCT-116 colon
[13] = system: HCT-15 colon
[14] = system: HOP-18 NSCLC
[15] = system: HOP-62 NSCLC
[16] = system: HOP-92 NSCLC
[17] = system: HT29 colon
[18] = system: IGROV1 ovarian
[19] = system: K-562 leukemia
[20] = system: KM12 colon
[21] = system: LOX IMVI melanoma
[22] = system: M14 melanoma
[23] = system: M19-MEL melanoma
[24] = system: NCI-H226 lung
[25] = system: NCI-H23 lung
[26] = system: NCI-H460 lung
[27] = system: OVCAR-3 ovarian
[28] = system: OVCAR-4 ovarian
[29] = system: OVCAR-5 ovarian
[30] = system: OVCAR-8 ovarian
[31] = system: RPMI-8226 leukemia
[32] = system: RXF 393 renal
[33] = system: RXF-631 renal
[34] = system: SF-268 CNS
[35] = system: SF-295 CNS
[36] = system: SF-539 CNS
[37] = system: SK-MEL-2 melanoma
[38] = system: SK-MEL-28 melanoma
[39] = system: SK-MEL-5 melanoma
[40] = system: SK-OV-3 ovarian
[41] = system: SN12C renal
[42] = system: SNB-19 CNS
[43] = system: SNB-75 CNS
[44] = system: SNB-78 CNS
[45] = system: SW-620 colon
[46] = system: TK-10 renal
[47] = system: U251 CNS
[48] = system: UACC-257 melanoma
[49] = system: UACC-62 melanoma
[50] = system: UO-31 renal
[51] = system: CCRF-CEM leukemia
[52] = system: HL-60(TB) leukemia
[53] = system: KM20L2 colon
[54] = system: LXFL 529 NSCLC
[55] = system: MALME-3M melanoma
[56] = system: MOLT-4 leukemia
[57] = system: NCI-H522 lung
[58] = system: XF 498 CNS
[59] = system: SR leukemia

Cc1cccc(-c2nc3c(C(=O)NCCN(C)C)cccc3[nH]2)c1
TGI [1]: 7.88 µM
TGI [2]: 3.34 µM
TGI [3]: 7.7 µM
TGI [4]: 8.46 µM
TGI [5]: 10.3 µM
TGI [6]: 1.56 µM
TGI [7]: 7.95 µM
TGI [8]: 2.51 µM
TGI [9]: 1.59 µM
TGI [10]: 3.5 µM
TGI [11]: 1.95 µM
TGI [12]: 1.55 µM
TGI [13]: 2.2 µM
TGI [14]: 4.85 µM
TGI [15]: 3.46 µM
TGI [16]: 3.46 µM
TGI [17]: 3.48 µM
TGI [18]: 4.06 µM
TGI [19]: > 100 µM
TGI [20]: 4 µM
TGI [21]: 2 µM
TGI [22]: 2.98 µM
TGI [23]: 3.03 µM
TGI [24]: 3.89 µM
TGI [25]: 2.26 µM
TGI [26]: 5.99 µM
TGI [27]: 6.55 µM
TGI [28]: 3.64 µM
TGI [29]: 4.14 µM
TGI [30]: 7.02 µM
TGI [31]: 9.49 µM
TGI [32]: 2.47 µM
TGI [33]: 2.16 µM
TGI [34]: 5.28 µM
TGI [35]: 3.9 µM
TGI [36]: 2.04 µM
TGI [37]: 3.26 µM
TGI [38]: 3.46 µM
TGI [39]: 3 µM
TGI [40]: 6.07 µM
TGI [41]: 3.2 µM
TGI [42]: 7.68 µM
TGI [43]: 3.73 µM
TGI [44]: 14.6 µM
TGI [45]: 1.91 µM
TGI [46]: 4.95 µM
TGI [47]: 5.77 µM
TGI [48]: 3.08 µM
TGI [49]: 3.2 µM
TGI [50]: 5.05 µM

CCN1C2=NC(=O)N(C)C(=O)C2(Cl)C(C(SC)S(=O)(=O)c2ccc(C)cc2)c2ccccc21 (centres undefined)
TGI [1]: 52.9 µM
TGI [2]: > 100 µM
TGI [3]: > 100 µM
TGI [5]: > 100 µM
TGI [51]: 25.7 µM
TGI [6]: 99.2 µM
TGI [7]: > 100 µM
TGI [8]: > 100 µM
TGI [9]: > 100 µM
TGI [10]: > 100 µM
TGI [11]: > 100 µM
TGI [12]: 53.6 µM
TGI [52]: 19.7 µM
TGI [15]: > 100 µM
TGI [16]: 71.3 µM
TGI [17]: > 100 µM
TGI [18]: > 100 µM
TGI [19]: 55.1 µM
TGI [53]: > 100 µM
TGI [21]: > 100 µM
TGI [54]: 59.3 µM
TGI [22]: 52.5 µM
TGI [23]: 61.5 µM
TGI [55]: > 100 µM
TGI [56]: 13.3 µM
TGI [24]: > 100 µM
TGI [25]: 50.4 µM
TGI [26]: > 100 µM
TGI [57]: 25.9 µM
TGI [27]: 80.2 µM
TGI [28]: 58.9 µM
TGI [29]: > 100 µM
TGI [30]: 50.4 µM
TGI [31]: 41.6 µM
TGI [33]: 51.2 µM
TGI [34]: > 100 µM
TGI [35]: > 100 µM
TGI [36]: > 100 µM
TGI [37]: > 100 µM
TGI [38]: 67.9 µM
TGI [39]: > 100 µM
TGI [40]: > 100 µM
TGI [41]: > 100 µM
TGI [42]: > 100 µM
TGI [43]: 53.7 µM
TGI [44]: 58.3 µM
TGI [45]: > 100 µM
TGI [46]: > 100 µM
TGI [47]: > 100 µM
TGI [48]: > 100 µM
TGI [49]: > 100 µM
TGI [50]: 76.1 µM
TGI [58]: > 100 µM

CC(=O)OC1C(=O)C(O)C(C)OC1O[C@@H]1C[C@@]2(C)[C@@H]3CC=C4[C@@H](C[C@H](O)C(=O)C4(C)C)[C@]3(C)C(=O)C[C@]2(C)[C@H]1[C@@](C)(O)C(=O)/C=C/C(C)(C)O (some centres undefined)
TGI [1]: 4.64 µM
TGI [2]: 1.04 µM
TGI [3]: > 10 µM
TGI [4]: 7.38 µM
TGI [5]: 2.98 µM
TGI [51]: > 7.21 µM
TGI [6]: > 6.77 µM
TGI [7]: > 10 µM
GI50 [9]: 0.0452 µM
TGI [10]: > 7.55 µM
TGI [11]: 8.32 µM
TGI [12]: > 10 µM
TGI [13]: > 9.45 µM
TGI [52]: 7.1 µM
TGI [14]: 4.9 µM
TGI [15]: 5.42 µM
TGI [16]: 2.52 µM
TGI [17]: > 10 µM
TGI [18]: 4.62 µM
TGI [19]: > 10 µM
TGI [20]: > 10 µM
TGI [53]: 8.3 µM
TGI [21]: 2.76 µM
TGI [54]: > 10 µM
TGI [22]: > 10 µM
TGI [23]: > 10 µM
TGI [55]: 9.83 µM
TGI [56]: > 10 µM
TGI [24]: 2 µM
TGI [25]: > 10 µM
TGI [26]: > 10 µM
TGI [57]: 6.12 µM
TGI [27]: 7.05 µM
TGI [28]: 5.51 µM
TGI [29]: > 10 µM
TGI [30]: > 10 µM
TGI [31]: 8.04 µM
TGI [32]: 1.43 µM
TGI [33]: 7.85 µM
TGI [34]: 4.01 µM
TGI [35]: 7.19 µM
TGI [36]: 1.97 µM
GI50 [37]: 0.055 µM
TGI [38]: 0.803 µM
TGI [39]: 8.4 µM
TGI [40]: > 9.33 µM
TGI [41]: > 10 µM
TGI [42]: 4.56 µM
TGI [43]: 1.47 µM
GI50 [44]: 0.0626 µM
TGI [59]: > 10 µM
TGI [45]: 9.85 µM
TGI [46]: 3.44 µM
TGI [47]: 5.41 µM
TGI [48]: 7.05 µM
TGI [49]: > 7.98 µM
TGI [50]: 4.95 µM
TGI [58]: 0.64 µM

C/C(O)=C(\N=O)C(=O)NCCc1ccccc1
TGI [1]: > 100 µM
TGI [2]: > 100 µM
TGI [3]: > 100 µM
TGI [4]: > 100 µM
TGI [5]: > 100 µM
TGI [51]: > 100 µM
TGI [6]: > 66.9 µM
TGI [7]: > 100 µM
TGI [8]: > 60 µM
TGI [9]: > 93.4 µM
TGI [10]: > 100 µM
TGI [11]: > 100 µM
TGI [12]: > 70.1 µM
TGI [13]: > 55.9 µM
TGI [52]: > 100 µM
TGI [14]: > 100 µM
TGI [15]: > 100 µM
TGI [16]: > 100 µM
TGI [17]: > 100 µM
TGI [18]: > 100 µM
TGI [19]: > 100 µM
TGI [20]: > 100 µM
TGI [53]: > 100 µM
TGI [21]: > 58 µM
TGI [54]: > 100 µM
TGI [22]: > 100 µM
TGI [23]: > 100 µM
TGI [55]: > 100 µM
TGI [56]: > 100 µM
TGI [24]: > 100 µM
TGI [25]: > 100 µM
TGI [26]: > 58.4 µM
TGI [57]: > 100 µM
TGI [27]: > 100 µM
TGI [28]: > 100 µM
TGI [29]: > 100 µM
TGI [30]: > 100 µM
TGI [31]: > 100 µM
TGI [32]: > 100 µM
TGI [34]: > 100 µM
TGI [35]: > 100 µM
TGI [36]: > 100 µM
TGI [37]: > 100 µM
TGI [38]: > 100 µM
TGI [39]: > 100 µM
TGI [40]: > 100 µM
TGI [41]: > 100 µM
TGI [42]: > 100 µM
TGI [43]: > 100 µM
TGI [44]: > 100 µM
TGI [59]: > 100 µM
TGI [45]: > 55.2 µM
TGI [46]: > 79.2 µM
TGI [47]: > 100 µM
TGI [48]: > 100 µM
TGI [49]: > 100 µM
TGI [50]: > 100 µM
TGI [58]: > 31.6 µM

Reference: PubChem BioAssay (NCI)
